Results taken from the supplement of paper PMC9663587.

Key:
[1] = compound: CS(=O)(=O)N1CCN(Cc2cc3nc(-c4cccc5[nH]ncc45)nc(N4CCOCC4)c3s2)CC1 [Pictilisib/GDC0941]; assay: increase in dead-cell fraction, 72 h; higher = more death;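 further: breast cancer cell lines in 384-well plates, stained with Hoechst plus LIVE/DEAD far red dye and imaged, cells above an LDR intensity threshold counted dead, Hoechst-negative corpses included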
[2] = compound: Cc1nc(Nc2ncc(C(=O)Nc3c(C)cccc3Cl)s2)cc(N2CCN(CCO)CC2)n1 [Dasatinib]; assay: as above
[3] = compound: C1=CC2=C(C=CC(=C2)C=C3C(=O)NC(=NCC4=CC=CS4)S3)N=C1 [R0-3306]; assay: GR value, 72 h; higher = faster growth (1 = untreated, <0 = killing);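 further: breast cancer and non-malignant breast epithelial lines, nine half-log doses, viable cells counted by Hoechst and LIVE/DEAD dye imaging versus time-zero plates and DMSO controls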
[4] = compound: CC(=O)O[C@H]1C(=O)[C@@]2(C)[C@H]([C@H](OC(=O)c3ccccc3)[C@]3(O)C[C@H](OC(=O)[C@H](O)[C@@H](NC(=O)c4ccccc4)c4ccccc4)C(C)=C1C3(C)C)[C@]1(OC(C)=O)CO[C@@H]1C[C@@H]2O [Paclitaxel]; assay: as above
[5] = compound: CC(C)NC[C@@H](C(=O)N1CCN(c2ncnc3c2[C@H](C)C[C@H]3O)CC1)c1ccc(Cl)cc1 [Ipatasertib/GDC0068]; assay: as above
[6] = compound: CC(C)n1nc(-c2ccc3oc(N)nc3c2)c2c(N)ncnc21 [INK128/MLN0128]; assay: as above
[7] = compound: CN1CCN(C(=O)c2ccc3cc(CCNc4ncnc5ccc(C#N)cc45)ccc3c2)CC1 [senexin b]; assay: as above
[8] = compound: CO[C@@H](C)Cn1c(=O)n(C)c2cnc3ccc(-c4cncc(C(C)(C)O)c4)cc3c21; assay: as above
[9] = compound: COc1cccc(OCCCN)c1-c1cc(Nc2cnc(C#N)cn2)n[nH]1; assay: as above
[10] = compound: Cc1nn(C)c(COc2ccc(N3CCN(S(=O)(=O)N(C)C)CC3)cc2)c1-c1cccc2c(CCCOc3cccc4ccccc34)c(C(=O)O)n(CCN3CCOCC3)c12; assay: as above
[11] = compound: NC(=O)Nc1cc(-c2cccc(F)c2)sc1C(=O)N[C@H]1CCCNC1 [AZD7762]; assay: as above
[12] = compound: O=C(c1cc(Cc2n[nH]c(=O)c3ccccc23)ccc1F)N1CCN(C(=O)C2CC2)CC1 [Olaparib/AZD2281]; assay: as above

With AU565 the “increase in dead-cell fraction” value ([1]; 0.001 µM) was 0.0052, the “increase in dead-cell fraction” value ([1]; 0.003162 µM) was 0.007 and the “increase in dead-cell fraction” value ([1]; 0.01 µM) was 0.0001. The “increase in dead-cell fraction” value ([1]; 0.03162 µM) was 0.0063, the “increase in dead-cell fraction” value ([1]; 0.1 µM) was 0.0196 and the “increase in dead-cell fraction” value ([1]; 0.3162 µM) was 0.0368. The “increase in dead-cell fraction” value ([1]; 1 µM) was 0.0866, the “increase in dead-cell fraction” value ([1]; 3.162 µM) was 0.126 and the “increase in dead-cell fraction” value ([1]; 10 µM) was 0.19. The “increase in dead-cell fraction” value ([2]; 0.001 µM) was 0.0065, the “increase in dead-cell fraction” value ([2]; 0.003162 µM) was 0.0017 and the “increase in dead-cell fraction” value ([2]; 0.01 µM) was 0.0035. For the same cell line, the “increase in dead-cell fraction” value ([2]; 0.03162 µM) was -0.0007, the “increase in dead-cell fraction” value ([2]; 0.1 µM) was -0.003 and the “increase in dead-cell fraction” value ([2]; 0.3162 µM) was 0.0019. The “increase in dead-cell fraction” value ([2]; 1 µM) was -0.0024, the “increase in dead-cell fraction” value ([2]; 3.162 µM) was 0.0091 and the “increase in dead-cell fraction” value ([2]; 10 µM) was 0.0365. For the same cell line, the GR value ([3]; 0.001 µM) was 0.805 GR, the GR value ([3]; 0.003162 µM) was 0.756 GR and the GR value ([3]; 0.01 µM) was 0.522 GR. The GR value ([3]; 0.03162 µM) was 0.735 GR, the GR value ([3]; 0.1 µM) was 0.692 GR and the GR value ([3]; 0.3162 µM) was 0.711 GR. For the same cell line, the GR value ([3]; 1 µM) was 0.548 GR, the GR value ([3]; 3.162 µM) was 0.375 GR and the GR value ([3]; 10 µM) was -0.214 GR. For the same cell line, the GR value ([4]; 0.0001 µM) was 1.05 GR, the GR value ([4]; 0.0003162 µM) was 1.1 GR and the GR value ([4]; 0.001 µM) was 0.919 GR. The GR value ([4]; 0.003162 µM) was -0.244 GR, the GR value ([4]; 0.01 µM) was -0.459 GR and the GR value ([4]; 0.03162 µM) was -0.515 GR. The GR value ([4]; 0.1 µM) was -0.482 GR, the GR value ([4]; 0.3162 µM) was -0.467 GR and the GR value ([4]; 1 µM) was -0.475 GR. The GR value ([5]; 0.001 µM) was 1.03 GR, the GR value ([5]; 0.003162 µM) was 1.08 GR and the GR value ([5]; 0.01 µM) was 1.03 GR. It also gave a GR value ([5]; 0.03162 µM) of 0.996 GR, a GR value ([5]; 0.1 µM) of 0.976 GR and a GR value ([5]; 0.3162 µM) of 0.809 GR. For the same cell line, the GR value ([5]; 1 µM) was 0.772 GR, the GR value ([5]; 3.162 µM) was 0.55 GR and the GR value ([5]; 10 µM) was 0.289 GR. It also gave a GR value ([6]; 0.0003162 µM) of 0.889 GR, a GR value ([6]; 0.001 µM) of 0.931 GR and a GR value ([6]; 0.003162 µM) of 0.62 GR. For the same cell line, the GR value ([6]; 0.01 µM) was 0.249 GR, the GR value ([6]; 0.03162 µM) was 0.0411 GR and the GR value ([6]; 0.1 µM) was -0.0783 GR. It also gave a GR value ([6]; 0.3162 µM) of -0.0838 GR, a GR value ([6]; 1 µM) of -0.184 GR and a GR value ([6]; 3.162 µM) of -0.48 GR. It also gave a GR value ([7]; 0.001 µM) of 1.02 GR, a GR value ([7]; 0.003162 µM) of 0.919 GR and a GR value ([7]; 0.01 µM) of 0.88 GR. The GR value ([7]; 0.03162 µM) was 1.05 GR, the GR value ([7]; 0.1 µM) was 0.897 GR and the GR value ([7]; 0.3162 µM) was 0.904 GR. The GR value ([7]; 1 µM) was 0.786 GR, the GR value ([7]; 3.162 µM) was 0.768 GR and the GR value ([7]; 10 µM) was 0.913 GR. The GR value ([8]; 0.001 µM) was 0.518 GR, the GR value ([8]; 0.003162 µM) was 0.487 GR and the GR value ([8]; 0.01 µM) was 0.464 GR. It also gave a GR value ([8]; 0.03162 µM) of 0.273 GR, a GR value ([8]; 0.1 µM) of 0.269 GR and a GR value ([8]; 0.3162 µM) of 0.0911 GR. For the same cell line, the GR value ([8]; 1 µM) was 0.0661 GR, the GR value ([8]; 3.162 µM) was -0.0273 GR and the GR value ([8]; 10 µM) was -0.533 GR. It also gave a GR value ([9]; 10 pM) of 0.889 GR, a GR value ([9]; 31.6 pM) of 0.97 GR and a GR value ([9]; 0.0001 µM) of 1.1 GR. It also gave a GR value ([9]; 0.0003162 µM) of 1.09 GR, a GR value ([9]; 0.001 µM) of 0.219 GR and a GR value ([9]; 0.003162 µM) of 0.112 GR. It also gave a GR value ([9]; 0.01 µM) of 0.0322 GR, a GR value ([9]; 0.03162 µM) of 0.0412 GR and a GR value ([9]; 0.1 µM) of 0.077 GR. It also gave a GR value ([10]; 0.001 µM) of 1.03 GR, a GR value ([10]; 0.003162 µM) of 1.04 GR and a GR value ([10]; 0.01 µM) of 1.09 GR. For the same cell line, the GR value ([10]; 0.03162 µM) was 1.03 GR, the GR value ([10]; 0.1 µM) was 1.06 GR and the GR value ([10]; 0.3162 µM) was 1.05 GR. The GR value ([10]; 1 µM) was 1.03 GR, the GR value ([10]; 3.162 µM) was 1.05 GR and the GR value ([10]; 10 µM) was 0.613 GR. For the same cell line, the GR value ([11]; 0.001 µM) was 1.01 GR, the GR value ([11]; 0.003162 µM) was 1.01 GR and the GR value ([11]; 0.01 µM) was 1.08 GR. For the same cell line, the GR value ([11]; 0.03162 µM) was 1.03 GR, the GR value ([11]; 0.1 µM) was 0.976 GR and the GR value ([11]; 0.3162 µM) was 0.756 GR. It also gave a GR value ([11]; 1 µM) of 0.41 GR, a GR value ([11]; 3.162 µM) of -0.179 GR and a GR value ([11]; 10 µM) of -0.57 GR. For the same cell line, the GR value ([12]; 0.001 µM) was 0.901 GR, the GR value ([12]; 0.003162 µM) was 1 GR and the GR value ([12]; 0.01 µM) was 1.02 GR. It also gave a GR value ([12]; 0.03162 µM) of 1.04 GR, a GR value ([12]; 0.1 µM) of 1 GR and a GR value ([12]; 0.3162 µM) of 0.907 GR. The GR value ([12]; 1 µM) was 0.942 GR, the GR value ([12]; 3.162 µM) was 0.979 GR and the GR value ([12]; 10 µM) was 0.577 GR.
